Assay results published in BindingDB's records for doi:10.7270/Q2HT2MVZ (Burnham Center For Chemical Genomics, 2011).

Target: T1, Sentrin-specific protease 8 (Homo sapiens, UniProt Q96LD8)
T1 sequence (Q96LD8 whole entry): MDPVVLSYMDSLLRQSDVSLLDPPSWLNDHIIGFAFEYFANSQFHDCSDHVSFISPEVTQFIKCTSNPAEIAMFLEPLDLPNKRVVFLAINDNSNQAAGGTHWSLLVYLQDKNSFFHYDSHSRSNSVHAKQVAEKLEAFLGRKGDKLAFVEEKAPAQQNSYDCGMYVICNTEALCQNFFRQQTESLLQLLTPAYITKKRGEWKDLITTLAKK
Assay: SENP8 protease inhibitors, SAR follow-up, biochemical, luminescence, set 2 (AID 588601)

Compound: CCOC1=CC(=CC(C#N)c2nc(-c3ccc(C)cc3)no2)C=C(Cl)C1=O (stereo unspecified)
- IC50: > 99 µM
